# According to patent US12285462B2, “pH-triggered membrane peptide-mediated epitope tethering at cell surfaces” (UNIVERSITY OF RHODE ISLAND BOARD OF TRUSTEES, priority 2019, dated 2025):
# Primed or numbered codes have the meaning given here. Where no end group is shown, it is not given here. Side-chain parts run from the residue outwards. The star is where a group is joined. Dnp = O=[N+]([O-])c1ccc(*)c([N+](=O)[O-])c1; PEG12′ = not defined here
# System: HeLa cells (tumor spheroids)
# Test: Complement-mediated killing of tumor spheroids (anti-DNP antibody or human IgM, human serum with active complement, PI staining)
# Type: cell-based
# Conditions: 5 µM construct 1 hour PBS pH6.5, anti-DNP antibody or human IgM 1 hr pH7.4, human serum with active complement and PI, FIG. 8, imaged 2 hours after treatment
# Description: The key for induction of immunological response is a proper positioning of epitope at the surface of tumor cells, which was verified on 3-D tumor cancer cell culture (tumor spheroids). Briefly, a 2% agarose solution was made by dissolving in pH 7.4 PBS. 150 μL of the solution was pipetted into each well of a 48-well flat bottom tissue culture plate. After the agarose gel sufficiently settled (˜1 h), 150 μL of DMEM supplemented with 10% FBS and ciprofloxacin-HCl was added to each well. The covered plate was left in a humidified atmosphere at 37° C. and 5% CO2 in cell culture incubator for 24 h. On the next day, the excess medium was removed from the agarose layer. HeLa cells (10,000 cells) in 200 μL of DMEM containing 2% matrigel were added into each well and incubated for 3-4 days to allow the formation of spheroids. Matrigel was dissolved on ice overnight and added in ice cold DMEM at a concentration of 2.5% (to obtain a final concentration of 2% once added to the wells). Then the mixture was heated to 37° C. before being combined with the cells. […] After treatment, the spheroids were washed several times in 1 mL of PBS. Next, spheroids were treated with anti-DNP antibody labeled with 647 nm fluorescent dye at pH 7.4 followed by washing. Spheroids were also stained with DAPI to mark cell nucleus. […]
substance,measurement,value
DNP-PEG12-pHLIP®: DNP-PEG12-NHS conjugated with single Lys residue at N-terminal of pHLIP® peptide Ac-AKDDQNPWRAYLDLLFPTDTLLLDLLWA (SEQ ID NO: 510) (Ac-AK([PEG12′-Dnp])DDQNPWRAYLDLLFPTDTLLLDLLWA),PI staining (red color) of dead or dying cells after complement-mediated attack,plasma membrane of cells was comrpomized by complement-mediated attack and that the cells were dying
